{"source": "patent US7968530B2", "about": "(priority 2005, dated 2011)", "key": {"Plasmopara viticola [1]": {"test_system": "Plasmopara viticola", "assay": "Preventive fungicidal activity against peronospora of vines, sprayed vine leaves (Example 7)", "assay_type": "in vivo", "settings": "7-day preventive, vine cv. Dolcetto, scale 0 (completely infected) to 100 (healthy plant); for Activity 500 ppm: 500 ppm as equivalent phosphorous acid; for Activity 1000 ppm: 1000 ppm as equivalent phosphorous acid", "procedure": "Determination of the Fungicidal Activity Against Peronospora of Vines (Plasmopara viticola).\nVine leaves (cultivar Dolcetto), grown in vases in a conditioned environment (20±1° C., 70% relative humidity) are treated by spraying both sides of the leaves with compounds 1 and 2, dispersed in a hydroacetone solution at 20% by volume in acetone.\nAfter remaining 24 hours in a conditioned environment, the plants were sprayed on both sides of the leaves with an aqueous suspension of conidia of Plasmopara viticola (20,000 conidia per cm^3).\nThe plants are kept in a humidity saturated environment at 21° C. for the incubation period of the fungus.\nAt the end of this period (7 days), the fungicidal activity is evaluated according to an evaluation percentage scale from 0 (completely infected plant) to 100 (healthy plant)."}, "Phytophthora infestans [2]": {"test_system": "Phytophthora infestans", "assay_type": "in vivo"}, "Plasmopara viticola [3]": {"test_system": "Plasmopara viticola", "assay": "1-day curative fungicidal activity of fungicidal mixtures against peronospora of vines (Example 10)", "assay_type": "in vivo", "description": "Leaves of vines (cultivar Dolcetto), grown in vases in a conditioned environment (20±1° C.), 70% relative humidity) were infected with an aqueous suspension of spores of Plasmopara viticola (200,000 conidia per cm^3).\n(§1) After remaining 24 hours in a conditioned environment, both sides of the leaves were sprayed with the fungicidal mixtures under examination dissolved in a hydroacetone solution at 20% of acetone (vol./vol.).\nAfter drying, the plants were transferred for the incubation period of the fungus (6 days) to a conditioned at 70% relative humidity and 24° C."}, "Phytophthora infestans [4]": {"test_system": "Phytophthora infestans", "settings": "1-day curative, potato Primura, scale 100 healthy to 0 infected"}, "Plasmopara tabacina": {"test_system": "Plasmopara tabacina", "assay": "1-day curative fungicidal activity of fungicidal mixtures against peronospora of tobacco (Example 11)", "assay_type": "in vivo", "description": "Determination of the Fungicidal Activity of Fungicidal Mixtures Against Peronospora of Tobacco (Plasmopara tabacina).\nLeaves of tobacco plants (cultivar Barley), grown in vases in a conditioned environment (20±1° C.), 70% relative humidity) were infected with an aqueous solution of spores of Plasmopara tabacina (200,000 conidia per cm^3).\nas §1\nAfter drying, the plants were transferred for the incubation period of the fungus (6 days) to a conditioned environment at 70% relative humidity and 24° C."}, "[5]": {"settings": "compound alone at 1575 ppm as equivalent phosphorous acid, 1-day curative, potato, scale 0-100"}, "[6]": {"settings": "1575 ppm as equivalent phosphorous acid"}}, "note": "Read-outs that look alike come from different tables or passages of the source."}
{"compound": "Neutral Choline Phosphite [Compound 1]", "values": [{"measurement": "Activity 500 ppm", "setting": "Plasmopara viticola [1]", "value": 90}, {"measurement": "Activity 1000 ppm", "setting": "Plasmopara viticola [1]", "value": 100}, {"measurement": "Activity (y)", "setting": "Phytophthora infestans [2]; [5]", "value": 65}]}
{"compound": "C[N+](C)(C)CCO.[Cl-]", "note": "[Choline chloride]", "values": [{"measurement": "Activity 500 ppm", "setting": "Plasmopara viticola [1]", "value": 35}, {"measurement": "Activity 1000 ppm", "setting": "Plasmopara viticola [1]", "value": 57}, {"measurement": "Activity (y)", "setting": "Phytophthora infestans [2]; compound alone at 2730 ppm, 1-day curative, potato, scale 0-100", "value": 20}, {"measurement": "Activity (y)", "setting": "Plasmopara viticola [3]; compound alone at 2047 ppm, 1-day curative, vine, scale 0-100", "value": 20}, {"measurement": "Activity", "setting": "Phytophthora infestans [4]; 2690 ppm (quantity of choline contained in Compound No 2)", "value": "15 (2690 ppm*)"}, {"measurement": "Activity (y)", "setting": "Plasmopara tabacina; compound alone at 2047 ppm, 1-day curative, tobacco, scale 0-100", "value": 10}]}
{"compound": "C[N+](C)(C)CCO.O=C([O-])O", "note": "[Choline bicarbonate]", "values": [{"measurement": "Activity 500 ppm", "setting": "Plasmopara viticola [1]", "value": 75}, {"measurement": "Activity 1000 ppm", "setting": "Plasmopara viticola [1]", "value": 84}]}
{"compound": "Acid Choline Phosphite [Compound 2]", "values": [{"measurement": "Activity 500 ppm", "setting": "Plasmopara viticola [1]", "value": 85}, {"measurement": "Activity 1000 ppm", "setting": "Plasmopara viticola [1]", "value": 95}, {"measurement": "Activity (y)", "setting": "Phytophthora infestans [2]; [5]", "value": 65}, {"measurement": "Activity", "setting": "Phytophthora infestans [4]; [6]", "value": "65 (1575 ppm**)"}, {"measurement": "Activity", "setting": "Phytophthora infestans [4]; 1575 ppm as equivalent phosphorous acid, […]", "value": 65}]}
{"compound": "CN(C)CCO", "note": "[N,N-dimethylethanolamine]", "values": [{"measurement": "Activity (y)", "setting": "Phytophthora infestans [2]; in vivo", "value": 30}, {"measurement": "Activity (y)", "setting": "Plasmopara viticola [3]; in vivo", "value": 25}, {"measurement": "Activity (y)", "setting": "Plasmopara tabacina; in vivo", "value": 5}]}
{"compound": "O=[PH]([O-])[O-].[K+].[K+]", "note": "[Compound K2HPO3, K2HPO3, reference compound]", "values": [{"measurement": "Activity 500 ppm", "setting": "Plasmopara viticola [1]", "value": 45}, {"measurement": "Activity 1000 ppm", "setting": "Plasmopara viticola [1]", "value": 80}, {"measurement": "Activity", "setting": "Phytophthora infestans [4]; [6]", "value": "40 (1575 ppm**)"}]}
{"compound": "CN(C)CCCO", "note": "[3-dimethylamine-1-propanol]", "values": [{"measurement": "Activity (y)", "setting": "Phytophthora infestans [2]; in vivo", "value": 25}]}
